In patent US20160047819A1, “METHOD FOR DIAGNOSING VAGINAL INFECTIONS” (priority 2013, published 2016):

System: microbial proteins in vaginal fluid
Assay: MS/MS proteomic analysis of vaginal fluid pools before and after rifaximin/placebo treatment: microbial proteins
Assay type: in vivo
Method: Proteomic analysis was performed on 9 pools of vaginal isolates, grouped according to the status of the BV infection: • H pool (from 41 healthy women); BV pool (from 39 BV-affected women); • A-R pool (from 2 women who were in remission after rifaximin treatment-group A); • A-N pool (from 8 women who were not in remission after rifaximin treatment-group A); • B-R pool (from 5 women who were in remission after rifaximin treatment-group B); • B-N pool (from 5 women who were not in remission after rifaximin treatment-group B); • C-R pool (from 4 women who were in remission after rifaximin treatment-group C); • C-N (from 5 women who were not in remission after rifaximin treatment-group C); • D-N (from 10 women who were not in remission after placebo treatment-group D). Scheme of the vaginal fluids collected for testing the diagnostic method is represented in FIG. 1.
In these figures are reported the peptides in the fractionated pools of healthy women, women affected by BV and peptides of women treated with rifaximin. The treatment with rifaximin was at dosage of 100 mg/day for 5 days; (remission, A-R; no remission, A-N), 25 mg/5 days (remission, B-R; no remission, B-N), 100 mg/2 days (remission, C-R; no remission, C-N), and placebo for 5 days (D-N). Two types of comparisons were carried out: (i) between fractionated pools of proteins from vaginal fluid of healthy women (HF) versus fractionated pool of proteins from vaginal fluid of women affected by bacterial vaginosis (BVF); (ii) between whole pools of proteins from vaginal fluid of women affected by BV treated by administering different doses of rifaximin or placebo before (BV) and after (A-R, A-N, B-R, B-N, C-R, C-N, D-N) treatment. Fractioned pools of proteins are obtained, e.g., by separating the proteins by separation on membrane filtration with different membrane porosity, prior to MS/MS analysis.
Nine volumes of acetone: HCl (10:1) were added to the supernatant of the vaginal rinsing and proteins were precipitated by centrifuging at 12000 g for 10 min. The protein pellet was dissolved in 1 mL of 70% ethanol and the sample was spun at 12000 g for 10 min. One mL of acetone was added and the proteins were further precipitated by centrifugation at 12000 g for 5 min. After removing supernatant, pellet was dried by SpeedVac concentrator (Thermo Savant ISS110, Thermo Fisher Scientific, Waltham, Mass.) and then stored at −20° C.
Protein extract was quantified using the 2-D Quant Kit (GE Healthcare, Uppsala, Sweden) according to the manufacturer's instructions.
Patients who were diagnosed for BV at the study visit V1 were included in a multicentre, double-blind, randomised, placebo-controlled study (EudraCT: 2009-011826-32), that was performed to compare the efficacy of different doses of rifaximin vaginal tablets versus placebo for the treatment of BV. The patients underwent a randomisation visit and were distributed into 4 treatment groups: group A received 100 mg rifaximin vaginal tablet once daily for 5 days (n=10), group B received 25 mg rifaximin vaginal tablet once daily for 5 days (n=10), group C received 100 mg rifaximin vaginal tablet once daily for the first 2 days and placebo vaginal tablet for the remaining 3 days (n=9), group D received placebo vaginal tablet once daily for 5 days (n=10). Study medication was administered intra-vaginally at bedtime. After 7 to 10 days from the end of the therapy a follow-up visit (V3) was performed. Remission was evaluated at V3 according to Amsel's criteria (<3) and Gram stain Nugent score (≦3) (Table 1).
Standardized vaginal rinsings with 2 mL of saline were collected for analysis at V1 and V3 by flushing and re-aspirating the fluid through a 22 Gauge needle in the left, central and right upper vaginal vaults. The vaginal rinsings were subsequently stored at −80° C. until use.
MS/MS analysis was carried out for H and BV pools and for the whole BV, A-R, A-N, B-R, B-N, C-R, C-N and D-N pools containing 50 μg of protein each. […]

[1] = up-regulated in all pools (rifaximin and placebo) vs BV

CO[C@H]1/C=C/O[C@@]2(C)Oc3c(C)c(O)c4c(O)c(c5c(nc6cc(C)ccn65)c4c3C2=O)NC(=O)/C(C)=C\C=C\[C@H](C)[C@H](O)[C@@H](C)[C@@H](O)[C@@H](C)[C@H](OC(C)=O)[C@@H]1C [rifaximin]
fold change of Phosphoglycerate kinase from L. gasseri (A-R pool, over-expressed in A-N, B-R, C-R and D-N pools): −22.1 fold
expression change of Pyruvate kinase from L. delbrueckii subsp. bulgaricus (affected only in A-R pool): 1.5 ratio
expression change of Triosephosphate isomerase from L. delbrueckii subsp. bulgaricus (affected only in B-N pool): 2.4 ratio
median expression change of trigger factor from L. brevis (down-regulated in all pools after rifaximin treatment): −2.5 ratio
Ratio X/H Ribosome-recycling factor OS = Bifidobacterium longum subsp. infantis (B7GQS1) (pool A-N after treatment): −1.2
Ratio X/H Trigger factor OS = Lactobacillus brevis (Q03QN6) (pool A-N after treatment): −2.4
Ratio X/H Triosephosphate isomerase OS = Lactobacillus delbrueckii subsp. bulgaricus (Q1GB25) (pool A-N after treatment): −1.2
Ratio X/H UPF0082 protein SAB0618 OS = Staphylococcus aureus (Q2YSR2) (pool A-N after treatment): 5.6
Ratio X/H Uncharacterized membrane protein YAL018C OS = Saccharomyces cerevisiae (P31379) (pool A-N after treatment): 2.0
Ratio X/H Uncharacterized protein yphG OS = Escherichia coli (P76585) (pool A-N after treatment): −4.3
Ratio X/H Ribosome-recycling factor OS = Bifidobacterium longum subsp. infantis (B7GQS1) (pool A-R after treatment): −4.5
Ratio X/H Trigger factor OS = Lactobacillus brevis (Q03QN6) (pool A-R after treatment): −3.8
Ratio X/H Triosephosphate isomerase OS = Lactobacillus delbrueckii subsp. bulgaricus (Q1GB25) (pool A-R after treatment): −1.3
Ratio X/H UPF0082 protein SAB0618 OS = Staphylococcus aureus (Q2YSR2) (pool A-R after treatment): 9.3
Ratio X/H Uncharacterized membrane protein YAL018C OS = Saccharomyces cerevisiae (P31379) (pool A-R after treatment): 1.1
Ratio X/H Uncharacterized protein yphG OS = Escherichia coli (P76585) (pool A-R after treatment): 1.1
Ratio X/H Ribosome-recycling factor OS = Bifidobacterium longum subsp. infantis (B7GQS1) (pool B-N after treatment): −1.1
Ratio X/H Trigger factor OS = Lactobacillus brevis (Q03QN6) (pool B-N after treatment): −2.1
Ratio X/H Triosephosphate isomerase OS = Lactobacillus delbrueckii subsp. bulgaricus (Q1GB25) (pool B-N after treatment): 2.4
Ratio X/H UPF0082 protein SAB0618 OS = Staphylococcus aureus (Q2YSR2) (pool B-N after treatment): 9.2
Ratio X/H Uncharacterized membrane protein YAL018C OS = Saccharomyces cerevisiae (P31379) (pool B-N after treatment): 2.0
Ratio X/H Uncharacterized protein yphG OS = Escherichia coli (P76585) (pool B-N after treatment): −1.1
Ratio X/H Ribosome-recycling factor OS = Bifidobacterium longum subsp. infantis (B7GQS1) (pool B-R after treatment): −2.4
Ratio X/H Trigger factor OS = Lactobacillus brevis (Q03QN6) (pool B-R after treatment): −2.2
Ratio X/H Triosephosphate isomerase OS = Lactobacillus delbrueckii subsp. bulgaricus (Q1GB25) (pool B-R after treatment): −1.2
Ratio X/H UPF0082 protein SAB0618 OS = Staphylococcus aureus (Q2YSR2) (pool B-R after treatment): 10.5
Ratio X/H Uncharacterized membrane protein YAL018C OS = Saccharomyces cerevisiae (P31379) (pool B-R after treatment): 2.9
Ratio X/H Uncharacterized protein yphG OS = Escherichia coli (P76585) (pool B-R after treatment): 1.1
Ratio X/H Ribosome-recycling factor OS = Bifidobacterium longum subsp. infantis (B7GQS1) (pool C-N after treatment): 1.0
Ratio X/H Trigger factor OS = Lactobacillus brevis (Q03QN6) (pool C-N after treatment): −3.2
Ratio X/H Triosephosphate isomerase OS = Lactobacillus delbrueckii subsp. bulgaricus (Q1GB25) (pool C-N after treatment): −1.3
Ratio X/H UPF0082 protein SAB0618 OS = Staphylococcus aureus (Q2YSR2) (pool C-N after treatment): 5.9
Ratio X/H Uncharacterized membrane protein YAL018C OS = Saccharomyces cerevisiae (P31379) (pool C-N after treatment): 4.2
Ratio X/H Uncharacterized protein yphG OS = Escherichia coli (P76585) (pool C-N after treatment): −1.1
Ratio X/H Ribosome-recycling factor OS = Bifidobacterium longum subsp. infantis (B7GQS1) (pool C-R after treatment): −2.8
Ratio X/H Trigger factor OS = Lactobacillus brevis (Q03QN6) (pool C-R after treatment): −2.7
Ratio X/H Triosephosphate isomerase OS = Lactobacillus delbrueckii subsp. bulgaricus (Q1GB25) (pool C-R after treatment): −1.4
Ratio X/H UPF0082 protein SAB0618 OS = Staphylococcus aureus (Q2YSR2) (pool C-R after treatment): 8.9
Ratio X/H Uncharacterized membrane protein YAL018C OS = Saccharomyces cerevisiae (P31379) (pool C-R after treatment): −1.6
Ratio X/H Uncharacterized protein yphG OS = Escherichia coli (P76585) (pool C-R after treatment): 1.0
median down-regulation of Malate dehydrogenase from S. cerevisiae (pools after treatment vs BV): −2.3 fold
median expression change of enolases from L. acidophilus, L. delbrueckii subsp. bulgaricus, L. gasseri (trend of down-regulation in response to antibiotic administration): −2.7 ratio
median expression change of Phosphoglycerate kinase from U. parvum [1]: 5.1 ratio
median expression change of UPF0082 protein SAB0618 from S. aureus [1]: 8.9 ratio
